The source made the active and inactive calls. No cut-off for these calls is given here.
Columns and labels:
[1] = biological target: Transient receptor potential cation channel subfamily V member 1 (Rattus norvegicus) (UniProt O35433); test: Agonist activity at rat TRPV1 expressed in CHO cells assessed as induction of 45Ca2+ uptake at 30 uM relative to capsaicin; format: functional, cell-based
[2] = biological target: T1, Transient receptor potential cation channel subfamily V member 1 (Rattus norvegicus, UniProt O35433); test: Displacement of [3H]RTX from rat TRPV1 expressed in CHO cells; format: cell-based
T1 sequence (O35433 whole entry): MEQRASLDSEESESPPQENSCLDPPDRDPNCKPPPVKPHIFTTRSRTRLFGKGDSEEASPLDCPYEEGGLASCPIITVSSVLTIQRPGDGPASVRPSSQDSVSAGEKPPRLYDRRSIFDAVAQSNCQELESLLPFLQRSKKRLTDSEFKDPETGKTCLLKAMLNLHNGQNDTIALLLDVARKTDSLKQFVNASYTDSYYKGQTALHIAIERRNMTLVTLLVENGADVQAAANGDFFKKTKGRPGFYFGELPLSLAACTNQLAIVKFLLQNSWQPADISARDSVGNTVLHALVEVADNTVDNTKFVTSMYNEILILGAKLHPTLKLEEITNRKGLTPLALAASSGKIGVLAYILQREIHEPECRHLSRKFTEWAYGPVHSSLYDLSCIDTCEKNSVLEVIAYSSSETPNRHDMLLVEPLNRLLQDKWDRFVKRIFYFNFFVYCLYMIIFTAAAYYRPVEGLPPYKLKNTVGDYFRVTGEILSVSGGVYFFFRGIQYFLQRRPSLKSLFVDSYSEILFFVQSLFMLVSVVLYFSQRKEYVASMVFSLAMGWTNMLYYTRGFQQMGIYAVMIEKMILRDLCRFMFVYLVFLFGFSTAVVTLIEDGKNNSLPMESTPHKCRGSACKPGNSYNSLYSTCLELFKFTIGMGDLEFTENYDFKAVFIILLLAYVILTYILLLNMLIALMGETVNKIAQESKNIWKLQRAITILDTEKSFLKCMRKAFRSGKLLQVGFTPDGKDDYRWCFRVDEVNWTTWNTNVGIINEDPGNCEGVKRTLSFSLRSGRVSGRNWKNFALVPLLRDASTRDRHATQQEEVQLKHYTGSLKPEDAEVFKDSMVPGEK

[3] = biological target: T1, Transient receptor potential cation channel subfamily V member 1; test: Antagonist activity at rat TRPV1 expressed in CHO cells assessed as inhibition of 45Ca2+ uptake; format: functional, cell-based
[4] = biological target: Transient receptor potential cation channel subfamily V member 1 (Rattus norvegicus) (UniProt O35433); test: Antagonist activity at rat TRPV1 expressed in CHO cells assessed as inhibition of 45Ca2+ uptake relative to control; format: functional, cell-based; parameters: scale not given: the % may be the effect or the level left

Transient receptor potential cation channel subfamily V member 1 (Rattus norvegicus), sequence (O35433 whole entry): as above

SMILES	Activity [1]	Ki [2] [nM]	Ki [3] [nM]	Activity [4] [%]
Cc1ccc(CC(CN/C(S)=N/Cc2ccc(NS(C)(=O)=O)cc2)COC(=O)C(C)(C)C)cc1C (stereo unspecified)	15%			
CC(C)(C)C(=O)OCC(CCc1ccc(C(C)(C)C)cc1)NC(=S)NCc1ccc(NS(C)(=O)=O)c(F)c1 (stereo unspecified)	inactive	190	152	
CC(C)(C)C(=O)OCC(CNC(=S)NCc1ccc(NS(C)(=O)=O)cc1)c1ccc(C(C)(C)C)cc1 (stereo unspecified)	inactive	143	91	
CC(C)(C)C(=O)OCC(NC(=S)NCc1ccc(NS(C)(=O)=O)cc1)c1ccc(C(C)(C)C)cc1 (stereo unspecified)	46%	197	940	46
CC(C)(C)C(=O)OCC(CCc1ccc(C(C)(C)C)cc1)NC(=S)NCc1ccc(NS(C)(=O)=O)cc1 (stereo unspecified)	inactive	366	286	
Cc1ccc(CC(COC(=O)C(C)(C)C)NC(=S)NCc2ccc(NS(C)(=O)=O)c(F)c2)cc1C (stereo unspecified)	inactive	233	650	
CC(C)(C)C(=O)OCC(Cc1ccc(C(C)(C)C)cc1)NC(=S)NCc1ccc(NS(C)(=O)=O)cc1 (stereo unspecified)	8%	416		31
Cc1ccc(CC(COC(=O)C(C)(C)C)NC(=S)NCc2ccc(NS(C)(=O)=O)cc2)cc1C (stereo unspecified)	19%	580		48
Cc1ccc(CCC(COC(=O)C(C)(C)C)NC(=S)NCc2ccc(NS(C)(=O)=O)cc2)cc1C (stereo unspecified)	5%	390	33.7	
CC(C)(C)C(=O)OCC(Cc1ccc(C(C)(C)C)cc1)NC(=S)NCc1ccc(NS(C)(=O)=O)c(F)c1 (stereo unspecified)	inactive	115	179	
Cc1ccc(CC(CNC(=S)NCc2ccc(NS(C)(=O)=O)c(F)c2)COC(=O)C(C)(C)C)cc1C (stereo unspecified)	inactive			
Cc1ccc(CCC(COC(=O)C(C)(C)C)NC(=S)NCc2ccc(NS(C)(=O)=O)c(F)c2)cc1C (stereo unspecified)	inactive	120	111	
CC(C)(C)C(=O)OCC(CNC(=S)NCc1ccc(NS(C)(=O)=O)c(F)c1)c1ccc(C(C)(C)C)cc1 (stereo unspecified)	inactive	69	116	
CC(C)(C)C(=O)OCC(NC(=S)NCc1ccc(NS(C)(=O)=O)c(F)c1)c1ccc(C(C)(C)C)cc1 (stereo unspecified)	35%	244	213	72
CC(C)(C)C(=O)OCC(C/N=C(\S)NCc1ccc(NS(C)(=O)=O)cc1)Cc1ccc(C(C)(C)C)cc1 (stereo unspecified)	40%			

From ChEMBL document CHEMBL2029279, “Structure-activity relationships and molecular modeling of the N-(3-pivaloyloxy-2-benzylpropyl)-N'-[4-(methylsulfonylamino)benzyl] thiourea template for TRPV1 antagonism” (Bioorg Med Chem Lett, 2012)
